Results: patent US20200148682A1, “AKT ISOZYME-SPECIFIC COVALENT INHIBITORS DERIVED FROM REDOX-SIGNALING LIPIDS” (Cornell University, priority 2017, published 2020)

How the values were obtained:
Type in all cases: cell-based
MDA-MB-468 cells [1] = test: Drug effect persistence assay; details: for proliferation after drug withdrawal vs continuous treatment: 48 hours drug, then 24 hours without
Experimental: After this time, cells were lysed and analyzed by antibodies for phosphorylated T305 (pT305) of Akt3, Halo (Akt), and Actin (loading control). […] FIG. 23F is a graph showing proliferation curves. […] After this time, the number of viable cells was calculated using AlamarBlue®. Proliferation curves were fitted to the PI50 equation (EQN. 4). […] FIG. 23H is a graph showing the percentage of viable cells. […] The percentage of growth relative to DMSO-treated cells is shown for the 48 hour point and the 72 hour point. FIG. 23I is a schematic showing the different methods used to derive the data in 23H.
MDA-MB-468 cells were plated in a 96-well plate at a density of 3,000-5,000 cells per well for 10 hours before the addition of varying concentrations of inhibitors. The cells were allowed to grow for 48 hours. The cell medium was aspirated and the cells were washed once with DMEM medium. The cells continued to grow in 5% FBS DMEM medium for 24 hours before adding 1/10th volume of AlamarBlue® reagent to cells in culture medium. The fluorescence emission signals at 590 nm were read using a Cytation 3 cell imaging multi-mode reader (BioTeK) using an excitation wavelength of 560 nm. Curve fitting and data analyses were performed using Prism software (FIG. 23I).

Halo-Akt2 = biological target: T1, Halo-Akt2 (Homo sapiens, UniProt P31751); test: AKTAR FRET assay in live HEK293T cells; details: 5 μM, 24 hours
T1 construct: expressed in transfected cells; host or cells: HEK293T
Experimental: (§1) FIGS. 21C-21D: HEK293T cells were transfected with plasmids encoding AKTAR and Halo-Akt3 (1:1). After 12 hours, cells were treated with MK-2206 (5 μM) or MK-HNE (5 μM). After 24 hours and 48 hours Akt3 activity was measured using ratiometric FRET analysis in live cells. After 48 hours, cells were washed two times with drug-free media containing 10% FBS and allowed to recover in 3% FBS MEM media for another 24 hours, after which time Akt3 activity was assayed using FRET again. wd=withdrawal for 24 hours. […] FIG. 21D is a graph showing quantitation of all data sets for treatment of HEK293T cells expressing Halo-Akt3/AKTAR. […] FIG. 21F is a graph showing quantitation of all data sets for treatment of HEK293T cells expressing Halo-Akt2/AKTAR. […] FIG. 21H is a graph showing quantitation of all data sets for treatment of HEK293T cells expressing Halo-Akt3C119S mutant/AKTAR.
(§2) HEK293T cells were plated in imaging plates at 60% confluence. After 24 hours, cells in each plate were transfected with 1 μg AktAR reporter plasmid and 1 μg plasmid of the designated HaloTag fusion Akt gene in PCS2+8 vector, using TransIT 2020 (6 μL) (FIG. 21B). 12 hours after transfection, cells were treated with 5 μM inhibitor or the equivalent final volume of DMSO in rinse medium containing 3% FBS and incubated for 24 hours before imaging. FRET imaging was performed using a Zeiss LSM 710 confocal microscope as previously described. Briefly, a 458 nm argon laser was used for excitation. The signals in the cyan channel (463-498 nm) and the yellow channel (525-620 nm) were recorded. Cells were then incubated in drug medium for another 24 hours before next imaging. The medium was aspirated and the cells were gently rinsed with 3% FBS in rinse medium twice every 30 min over the next hour, Fresh rinse medium with 3% FBS was added and the cells were imaged again after 24 hours. For quantification, the mean CFP and YFP signal intensity was measured using Image by drawing a freehand circle around the cells, and the ratio image was calculated. Graphing and data analysis (Student's t-test) were performed using Prism software.
(§3) One of the key benefits of covalent inhibition is the ability to uncouple pharmacokinetics from pharmacodynamics. This effect is achieved, because once irreversible inhibition occurs, an irreversible inhibitor will remain bound to its target post clearance of the unbound inhibitor. On the other hand, for a reversible inhibitor, as drug concentration drops, the drug is released from its target and inhibition is lost. This situation can be modeled in cell culture by removal of the drug from the media and measuring changes in activity as a function of time post drug removal. Akt inhibition was assayed using AKTAR (FIG. 21A). This fusion of two fluorescent proteins emits two different frequencies of light when excited with blue light, depending on the activity of Akt. When the construct is selectively phosphorylated by Akt, both blue and green light are emitted, due to fluorescence resonance energy transfer (FRET) from the CFP to the YFP. However, when the protein is not phosphorylated, emission is mainly in the blue channel. Thus the ratio of green to blue emission is a direct readout of Akt activity in live cells.

Halo-Akt3 = biological target: T2, Halo-Akt3 (Homo sapiens, UniProt Q9Y243); test: AKTAR FRET assay in live HEK293T cells; details: for Akt3 activity (green/blue FRET ratio) during treatment: 5 μM, 24 hours
T2 construct: expressed in transfected cells; host or cells: HEK293T
Experimental: as §1, §2, §3

Akt3(C119S) = biological target: T3, Akt3(C119S) (Homo sapiens, UniProt Q9Y243, C119S); test: AKTAR FRET assay in live HEK293T cells; details: for Akt3(C119S) activity (FRET) during treatment: 5 μM; for Akt3(C119S) activity (FRET) after drug withdrawal: 24 hours after removal from media
T3 construct: expressed in transfected cells; host or cells: HEK293T
Experimental: as §1, §2, §3

MDA-MB-468 cells [2] = test: Cell cycle analysis using flow cytometry; details: for effect on cell cycle: 72 hours
Experimental: MDA-MB-468 cells in a 6-well plate at 10% confluence were treated with HNE alkyne or the indicated drug at PI60 or PI80 concentration for 72 hours at 37° C. Negative control contained the equivalent volume of DMSO. Cells were grown and analyzed in separate batches of 1-2 replicates per condition that were run 2-3 times each. Each time the data points were normalized to the control set for each batch. At the indicated time post compound treatment, the culture medium was aspirated and the adherent cells were detached from the plate using trypsin, quenched with complete media, centrifuged (700 g), washed once with PBS, centrifuged (700 g), resuspended in PBS, then fixed with 70% ethanol for 24 hours. The cell suspensions were spun down at 1,000 g and washed with 500 μl of PBS twice. Each cell pellet was treated with 500 μL staining solution containing 50 μl of Ribonuclease A (≥70 Kunitz units/mg proteins, R6513, Sigma-Aldrich) and 50 μl of a propidium iodide (1 mg/ml, Sigma-Aldrich) solution in PBS with 1% BSA. The resulting solution was incubated with agitation at room temperature for 30 min in the dark.
The stained cells were assayed on a BD LSR II flow cytometer. FlowJo® was used to deconvolute the signals. Cells were grouped first by forward and side scatter (area), then that group was regrouped using forward (width) versus forward (area) scatter to give single cells. Cells were than analyzed using cellular DNA content to quantitate the percentage of cells in the respective phases (G1, S, G2/M and sub-G0) of the cell cycle.

T2 sequence (Q9Y243 whole entry): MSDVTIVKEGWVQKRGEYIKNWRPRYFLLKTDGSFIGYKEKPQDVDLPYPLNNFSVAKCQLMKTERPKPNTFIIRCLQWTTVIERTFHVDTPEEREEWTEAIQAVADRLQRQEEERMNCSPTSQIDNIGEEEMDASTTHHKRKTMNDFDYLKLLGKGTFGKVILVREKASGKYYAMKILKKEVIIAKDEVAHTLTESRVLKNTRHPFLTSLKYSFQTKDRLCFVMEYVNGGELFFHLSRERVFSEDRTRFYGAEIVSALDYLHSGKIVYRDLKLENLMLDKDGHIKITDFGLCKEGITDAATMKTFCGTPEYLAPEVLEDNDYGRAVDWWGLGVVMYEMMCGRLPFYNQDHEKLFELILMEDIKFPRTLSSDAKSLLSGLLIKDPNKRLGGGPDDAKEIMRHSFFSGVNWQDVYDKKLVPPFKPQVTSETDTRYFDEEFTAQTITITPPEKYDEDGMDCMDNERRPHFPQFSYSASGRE
T3 sequence (Q9Y243 whole entry C119S): as the sequence (Q9Y243 whole entry) above, with C119S counted along it
T1 sequence (P31751 whole entry): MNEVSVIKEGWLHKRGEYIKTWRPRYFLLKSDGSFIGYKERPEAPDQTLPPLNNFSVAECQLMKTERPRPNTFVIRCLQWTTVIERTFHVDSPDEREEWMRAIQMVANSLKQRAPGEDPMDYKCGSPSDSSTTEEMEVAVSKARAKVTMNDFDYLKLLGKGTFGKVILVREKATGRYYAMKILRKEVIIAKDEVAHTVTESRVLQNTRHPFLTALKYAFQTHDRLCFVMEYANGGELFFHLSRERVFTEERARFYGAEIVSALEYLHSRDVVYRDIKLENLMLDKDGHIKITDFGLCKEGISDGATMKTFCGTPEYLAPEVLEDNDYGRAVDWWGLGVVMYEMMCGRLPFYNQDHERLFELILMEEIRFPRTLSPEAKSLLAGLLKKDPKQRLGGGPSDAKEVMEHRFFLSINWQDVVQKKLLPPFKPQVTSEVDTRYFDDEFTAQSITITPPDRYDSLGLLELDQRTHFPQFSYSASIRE

How did the “proliferation after drug withdrawal vs continuous treatment” value (MDA-MB-468 cells [1]) turn out when `NC1(c2ccc(-c3nc4ccn5c(=O)[nH]nc5c4cc3-c3ccccc3)cc2)CCC1` [MK-2206] was run?
The value was “significant regain of proliferation”.

And the EC60 concentration (MDA-MB-468 cells [1]; MDA-MB-468, concentration used for 48 hours treatment)?
Its EC60 concentration is 2000 nM.

And the “Akt2 activity (green/blue FRET ratio) during treatment” value (Halo-Akt2)?
Its value is “decrease in green/blue fluorescence”.

And the “Akt3 activity (green/blue FRET ratio) during treatment” value (Halo-Akt3)?
Its value is “decrease in green/blue fluorescence”.

And the “Akt3 activity (green/blue FRET ratio) after drug withdrawal” value (Halo-Akt3; 48 hours drug, then 24 hours withdrawal)?
Its value is “returned to those observed in untreated cells”.

What about the “Akt3(C119S) activity (FRET) during treatment” value (Akt3(C119S)) of the same compound?
Its value is “Akt inhibition was observed”.

What about the “Akt3(C119S) activity (FRET) after drug withdrawal” value (Akt3(C119S)) of the same compound?
Its value is “no inhibition was observed”.

What about the “G1/G0 (percentage of cells in phase)” value (MDA-MB-468 cells [2]; drug at PI60, 72 hours) of the same compound?
Its value is 41.8.

What about the “G2/M (percentage of cells in phase)” value (MDA-MB-468 cells [2]; drug at PI60, 72 hours) of the same compound?
The value was 31.3.

And the “S (percentage of cells in phase)” value (MDA-MB-468 cells [2]; drug at PI60, 72 hours)?
The value was 25.4.

And the “subG0 (percentage of cells in phase)” value (MDA-MB-468 cells [2]; drug at PI60, 72 hours)?
The value was 0.3.

And the “G1/G0 (percentage of cells in phase)” value (MDA-MB-468 cells [2]; drug at PI80, 72 hours)?
Its value is 50.2.

What about the “G2/M (percentage of cells in phase)” value (MDA-MB-468 cells [2]; drug at PI80, 72 hours) of the same compound?
Its value is 29.0.

What about the “S (percentage of cells in phase)” value (MDA-MB-468 cells [2]; drug at PI80, 72 hours) of the same compound?
The value was 19.6.

What about the “subG0 (percentage of cells in phase)” value (MDA-MB-468 cells [2]; drug at PI80, 72 hours) of the same compound?
Its value is 0.3.

Which results are given for `C#CCCCC(F)/C=C/C(=O)NC1(c2ccc(-c3nc4ccn5c(=O)[nH]nc5c4cc3-c3ccccc3)cc2)CCC1.Cl` (centres unmarked) [MK-FNE, (E)-8-(4-(1-(4-Fluoronon-2-en-8-ynamido)cyclobutyl)phenyl)-3-oxo-9-phenyl-2,3-dihydro-[1,2,4]triazolo[3,4-f][1,6]naphthyridin-7-ium Chloride]?
proliferation after drug withdrawal vs continuous treatment (MDA-MB-468 cells [1]): no difference between withdrawal (wd) and continuous (cont) treatment; Akt2 activity (green/blue FRET ratio) during treatment (Halo-Akt2): decrease in green/blue fluorescence; Akt3 activity (green/blue FRET ratio) during treatment (Halo-Akt3): decrease in green/blue fluorescence; effect on cell cycle (MDA-MB-468 cells [2]): G1 arrest; G1/G0 (percentage of cells in phase) (MDA-MB-468 cells [2]; drug at PI60, 72 hours): 47.0; G2/M (percentage of cells in phase) (MDA-MB-468 cells [2]; drug at PI60, 72 hours): 33.3; S (percentage of cells in phase) (MDA-MB-468 cells [2]; drug at PI60, 72 hours): 18.6; subG0 (percentage of cells in phase) (MDA-MB-468 cells [2]; drug at PI60, 72 hours): 0.5; G1/G0 (percentage of cells in phase) (MDA-MB-468 cells [2]; drug at PI80, 72 hours): 58.9; G2/M (percentage of cells in phase) (MDA-MB-468 cells [2]; drug at PI80, 72 hours): 27.0; S (percentage of cells in phase) (MDA-MB-468 cells [2]; drug at PI80, 72 hours): 11.9; subG0 (percentage of cells in phase) (MDA-MB-468 cells [2]; drug at PI80, 72 hours): 0.8

Which “Akt3(C119S) activity (FRET) during treatment” value (Akt3(C119S)) does the source give for `C#CCCCC(O)/C=C/C(=O)NC1(c2ccc(-c3nc4ccn5c(=O)[nH]nc5c4cc3-c3ccccc3)cc2)CCC1.Cl` (centres unmarked) [MK-HNE, (E)-8-(4-(1-(4-Hydroxynon-2-en-8-ynamido)cyclobutyl)phenyl)-3-oxo-9-phenyl-2,3-dihydro-[1,2,4]triazolo[3,4-f][1,6]naphthyridin-7-ium Chloride] here?
Its value is “Akt inhibition was observed”.

And the “Akt3(C119S) activity (FRET) after drug withdrawal” value (Akt3(C119S))?
Its value is “no inhibition was observed”.

What about the “effect on cell cycle” value (MDA-MB-468 cells [2]) of the same compound?
The value was “G1 arrest”.

And the “G1/G0 (percentage of cells in phase)” value (MDA-MB-468 cells [2]; drug at PI60, 72 hours)?
The value was 41.7.

And the “G2/M (percentage of cells in phase)” value (MDA-MB-468 cells [2]; drug at PI60, 72 hours)?
Its value is 30.3.

And the “S (percentage of cells in phase)” value (MDA-MB-468 cells [2]; drug at PI60, 72 hours)?
The value was 25.9.

And the “subG0 (percentage of cells in phase)” value (MDA-MB-468 cells [2]; drug at PI60, 72 hours)?
Its value is 0.4.

And the “G1/G0 (percentage of cells in phase)” value (MDA-MB-468 cells [2]; drug at PI80, 72 hours)?
Its value is 49.

And the “G2/M (percentage of cells in phase)” value (MDA-MB-468 cells [2]; drug at PI80, 72 hours)?
Its value is 25.5.

And the “S (percentage of cells in phase)” value (MDA-MB-468 cells [2]; drug at PI80, 72 hours)?
The value was 16.6.

What about the “subG0 (percentage of cells in phase)” value (MDA-MB-468 cells [2]; drug at PI80, 72 hours) of the same compound?
Its value is 5.5.
